Experimental data published in patent publication US10238631B2, “Sesquiterpene derivatives and their use in inflammation or cancer treatment” (Academia Sinica, priority 2014, dated 2019).
Like-named read-outs stand apart in the source and are kept apart here.

What was measured:
[1] = test system: MDA-MB-231 lung metastasis; experiment: Lung metastasis of MDA-MB-231 cells in SCID mice; type: in vivo, mouse; details: post-treatment, 5 mg/kg i.p. every three days
Experimental: Female SCID mice (5 weeks old, average body weight 19.59±1.26 g) were assigned to 8 groups: PIX group (5 mg/kg paclitaxel), DETD-35-2 group (2 mg/kg DETD-35), DETD-35-10 group (10 mg/kg DETD-35). PTX-5+DETD-35-2 group (5 mg/kg paclitaxel and 2 mg/kg DETD-35 administration alternatively for eleven doses of paclitaxel (PTX) and ten doses of DETD-35 in total), tumor (vehicle) group (5% DMSO), and sham group (5% DMSO). Pre-DETD-35-10 group was the mice administered 10 mg/kg DETD-35 every two days for three doses before the i.v. injection of 1×10^6 MDA-MB-231 tumor cells at day 0. All other drug or compounds were administered i.p. every three days starting from day 1. At the end of experiment (day 71), the test mice were sacrificed by cervical dislocation. The lung, liver, kidney, and spleen organs were removed and recorded weights and calculated for organ index (% of organ weight/body weight). The number of tumor colonies on lungs of test mice was counted.

MDA-MB-231 cell invasion = experiment: Boyden chamber (Matrigel) invasion assay; type: cell-based, human; details: 24 h
Experimental: (§1) To test the anti-migratory and anti-invasive effect of DET. DETD-35 and PTX. Boyden chambers assay was carried out. The lower well of the chamber (6.5 mm diameter, […]; Costar. Cambridge, Mass., USA) was added 10% fetal bovine serum (FBS) as a chemoattractant and filled with DMEM culture medium containing vehicle (DMSO, 0.05%), DET (2.5 and 4 μM). DETD-35 (1.25 and 2.5 μM), or PTX (2.5 and 4 μM). MDA-MB-231 cells were placed into the upper chamber (5×10^4 cells per insert) with the medium containing 0.1% FBS. After 24 h incubation at 37° C. in a 5% CO2 atmosphere, non-migrating cells were scraped from the upper surface of the membrane using a cotton swab, and the migrated cells remaining in the well were fixed and stained with DAPI solution (4,6-diamidino-2-phenylindole, 1 μg/ml). The migrating cells were counted in three fields at 20× original magnifications by inverted fluorescence microscopy. To test the anti-invasive effect of the compounds, 8-μm filters were pre-coating with Matrigel (30 μg per filter) and incubated at 37° C. for 2 h, then followed the protocol of migration assay descried about.

[2] = test system: MDA-MB-231 cell migration; experiment: Boyden chamber migration assay; type: cell-based, human; details: 24 h
Experimental: as §1

[3] = test system: MDA-MB-231 (ER−, PR−, Her2−) human breast cancer cells; experiment: MTT cell viability assay, MDA-MB-231 cells; type: cell-based; details: for IC50: Homo sapiens
In short: (§2)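 Viability is scored colorimetrically by MTT after cells, plated at 2×10^3 to 1×10^4 per well the night before, receive compounds for 24 h to 72 h; 0.5% DMSO-treated wells define 100%.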

U937 lymphoma line = experiment: MTT cell viability assay, U937; type: cell-based; details: Homo sapiens, U-937, 24 h
Experimental: (§3) Normal or cancer cells (2×10^3 to 1×10^4 cells/well) were seeded in 96-well plate for overnight and treated with different compounds for 24 h to 72 h. Cells growth were determined by MTT-based colorimetric assays according to. Viability of the test cells treated with vehicle (0.5% DMSO) only was defined as 100% viable. Survival of cells after treatment with DETDs was calculated using the following formula: viable cell number (%)=OD570 (treated cell culture)/OD570 (vehicle control)×100.
(§4) Based on toxicity results of DET and DETDs on different breast cancer and melanoma cell lines, we selected DETD-6, -32, -35 and -39, under the consideration of structure activity relationship for evaluating their suppression effect against other cancer types of cell line with indicated tumor origin in Table 5. […] The cells were treated with compounds for 24 h and then subjected to MTT assays.

[4] = test system: Melanocyte (Normal cells); experiment: MTT cell viability assay, normal melanocytes; type: cell-based, human; details: Homo sapiens, Melanocyte, 24 h
In short: (§5)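 Viability is determined colorimetrically with MTT after a 24 h to 72 h compound treatment. Vehicle wells containing 0.5% DMSO define 100% viability, and treated OD570 values are expressed relative to them.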

[5] = test system: MeWo (No NRAS or BRAF mutation); experiment: MTT cell viability assay, MeWo melanoma; type: cell-based, human; details: Homo sapiens, MeWo, 24 h
In short: as §5

[6] = test system: TS/A (ER+, Her2−) murine mammary cancer cells; experiment: MTT cell viability assay, TS/A cells; type: cell-based; details: Mus musculus
In short: as §2

A375 (BRAF mutation) = experiment: MTT cell viability assay, A375 melanoma; type: cell-based, human; details: Homo sapiens, A-375, 24 h, 24 h, MTT; read-out: IC50 on cell viability, A375 (BRAF mutation)
In short: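 A375 cells were seeded at 2×10^3 to 1×10^4 per well overnight and then exposed to compounds for 24 h to 72 h. Viability was measured by MTT absorbance at OD570 relative to 0.5% DMSO vehicle (100%), and IC50 was derived from it. Combination with PLX4032 was scored by combination index.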

HTB-68 (NRAS mutation) = experiment: MTT cell viability assay, HTB-68 melanoma; type: cell-based, human; details: Homo sapiens, 24 h
In short: as §5

PC3 (Prostate) = experiment: MTT cell viability assay, PC3; type: cell-based; details: 24 h
Experimental: as §3, §4

[7] = test system: U-87MG brain cancer cell line; experiment: MTT cell viability assay, U-87MG; type: cell-based; details: Homo sapiens, 24 h
Experimental: as §3, §4

[8] = test system: KATO III stomach cancer cell line; experiment: MTT cell viability assay, KATO III; type: cell-based; details: Homo sapiens, 24 h
Experimental: as §3, §4

[9] = test system: LPS-induced nitric oxide (NO) production in RAW 264.7 cells; experiment: Nitric oxide production in LPS-stimulated macrophages (Griess); type: cell-based, mouse; details: Mus musculus; LPS-stimulated RAW264.7, nitrite 24 h after LPS
In short: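 RAW 264.7 macrophages (2×10^5 cells/well) were pretreated with compound for 1 h and then stimulated with 100 ng/μL LPS for 24 h. NO was measured as nitrite in the medium by the Griess reaction. Viability was checked in parallel by MTT.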

[10] = test system: PC6 lung cancer cell line; experiment: MTT cell viability assay, PC6; type: cell-based; details: 24 h
Experimental: as §3, §4

[11] = test system: MCF-7 (ER+, Her2−) human breast cancer cells; experiment: MTT cell viability assay, MCF-7 cells; type: cell-based
In short: as §2

[12] = test system: HCT-116 colon cancer cell line; experiment: MTT cell viability assay, HCT-116; type: cell-based; details: Homo sapiens, 24 h
Experimental: as §3, §4

A2058 (BRAF mutation) = experiment: MTT cell viability assay, A2058 melanoma; type: cell-based, human; details: Homo sapiens, A2058, 24 h
In short: as §5

[13] = test system: A498 kidney cancer cell line; experiment: MTT cell viability assay, A498; type: cell-based; details: Homo sapiens, 24 h
Experimental: as §3, §4

[14] = test system: NES-SA uterus cancer cell line; experiment: MTT cell viability assay, NES-SA; type: cell-based; details: 24 h
Experimental: as §3, §4

B16-F10 (NRAS mutation) = experiment: MTT cell viability assay, B16-F10 melanoma; type: cell-based; details: Mus musculus, B16-F10, 24 h
In short: as §5

[15] = test system: M10 normal mammary epithelial cells; experiment: MTT cell viability assay, M10 normal cells; type: cell-based, human; details: 24 h; for IC50: Homo sapiens, Epithelial cell
In short: as §2

[16] = test system: SK-N-MC neuroepithelioma line; experiment: MTT cell viability assay, SK-N-MC; type: cell-based; details: Homo sapiens, 24 h
Experimental: as §3, §4

[17] = test system: RAW264.7 (normal macrophage); experiment: MTT cell viability assay, RAW264.7 macrophages; type: cell-based, mouse; details: Mus musculus, RAW264.7, 24 h
In short: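 RAW264.7 macrophages (2×10^5 cells/well) pretreated with compounds 1 h, then incubated 24 h with or without 100 ng/μL LPS. Viability by MTT colorimetric assay run in parallel with Griess nitrite measurement.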

[18] = test system: melanoma cell lines B16-F10, MeWo, A375, A2058, HTB-68; experiment: MTT cell viability assay, all melanoma cell lines; type: cell-based; details: 24 h, read-out: IC50 values over all types of melanoma cell lines
Experimental: as §3
Several genes are involved in melanoma development and pathology; specifically, mutation in V-raf murine sarcoma viral oncogene homolog B1 (B-RAF) occurs approximately 50-60% and in neuroblastoma RAS viral oncogene homolog (N-RAS) occurs about 30% of malignant melanomas. A spectrum of wild-type or mutated melanoma cell lines including B16-F10, MeWo, A375, A2058, HTB-68, and melanocyte were used to study anti-melanoma cell proliferation activity of parental phytocompound DET and newly synthesized DETDs.

[19] = higher concentrations (DET 4 μM, DETD-35 2.5 μM, PTX 4 μM)
[20] = lower concentrations (DET 2.5 μM, DETD-35 1.25 μM, PTX 2.5 μM)
[21] = 24 h, read-out: IC50 on cell viability, TS/A (ER+, Her2−)
[22] = Table 5, 24 h, read-out: IC50 viability TS/A (mouse) (Breast)
[23] = MCF7, 24 h, read-out: IC50 on cell viability, MCF-7 (ER+, Her2−)
[24] = MCF7, Table 5, 24 h, read-out: IC50 viability MCF-7 (Breast)
[25] = MDA-MB-231, 24 h, read-out: IC50 on cell viability, MDA-MB-231 (ER−, PR−, Her2−)
[26] = MDA-MB-231, Table 5, 24 h, read-out: IC50 viability MDA-MB-231 (Breast)
[27] = 24 h, read-out: IC50 on cell viability, B16-F10 (NRAS mutation)
[28] = Table 5, 24 h, read-out: IC50 viability B16-F10 (mouse) (Skin)

| IC50 (U937 lymphoma line) [nM] | IC50 [5] [nM] | IC50 [6, 21] [nM] | IC50 [6, 22] [nM] | IC50 (A375 (BRAF mutation)) [nM] | IC50 (HTB-68 (NRAS mutation)) [nM] | IC50 (PC3 (Prostate)) [nM] | IC50 [7] [nM] | IC50 [8] [nM] | IC50 [9] [nM] | IC50 [10] [nM] | IC50 [11, 23] [nM] | IC50 [11, 24] [nM] | IC50 [12] [nM] | IC50 (A2058 (BRAF mutation)) [nM] | IC50 [13] [nM] | IC50 [14] [nM] | IC50 [3, 25] [nM] | IC50 [3, 26] [nM] | SMILES | IC50 [4] [nM] | other results |
| --- | --- | --- | --- | --- | --- | --- | --- | --- | --- | --- | --- | --- | --- | --- | --- | --- | --- | --- | --- | --- | --- |
|  |  |  |  |  |  |  |  |  |  |  |  |  |  |  |  |  |  |  | CC(=O)O[C@H]1C(=O)[C@@]2(C)[C@H]([C@H](OC(=O)c3ccccc3)[C@]3(O)C[C@H](OC(=O)[C@H](O)[C@@H](NC(=O)c4ccccc4)c4ccccc4)C(C)=C1C3(C)C)[C@]1(OC(C)=O)CO[C@@H]1C[C@@H]2O [PTX, paclitaxel] |  | reduction of number of tumor foci in lungs vs tumor control [1]: 62%; inhibition of cell invasion (MDA-MB-231 cell invasion; [19]): 90%; inhibition of cell invasion (MDA-MB-231 cell invasion; [20]): 85%; reduction of cell migration vs vehicle control [2, 19]: 88%; suppression of cell migration vs vehicle control [2, 20]: 87%; IC60 on MDA-MB-231 cells ([3]; 24 h): 23.8 nM |
| 390 | > 10000 | 1900 | 1900 | > 10000 | > 10000 | 6200 | 420 | 820 | 2600 | 470 | 4300 | 4300 | 360 | > 10000 | 1480 | 500 | 3900 | 3900 | C=C1C(=O)O[C@H]2CC3=C[C@@H](C/C(C)=C/[C@@H](OC(=O)c4ccc(OC)cc4)[C@H]12)OC3=O [DETD-32] | > 10000 | IC50 (B16-F10 (NRAS mutation); [27]): 4200 nM; IC50 (B16-F10 (NRAS mutation); [28]): 4200 nM; IC50 [15]: > 7500 nM; IC50 [16]: 510 nM; IC50 [17]: > 10000 nM |
| 180 | 9900 | 1600 | 1800 | 3300 | 5700 | 4500 | 350 | 420 | 2500 | 170 | 1600 | 4800 | 110 | 3900 | 1110 | 420 | 4200 | 4000 | C=C1C(=O)O[C@H]2CC3=C[C@@H](C/C(C)=C/[C@@H](OC(=O)/C=C/c4ccccc4)[C@H]12)OC3=O [DETD-6] | > 10000 | IC50 [18]: 1600 to 9900 nM; IC50 (B16-F10 (NRAS mutation); [27]): 3900 nM; IC50 (B16-F10 (NRAS mutation); [28]): 3900 nM; IC50 on cell viability, M10 (normal) [15]: some toxicity; IC50 [15]: 4900 nM; IC50 [16]: 320 nM; IC50 [17]: > 10000 nM |
